Measured values as given in ChEMBL document CHEMBL1136266, “beta-Homolysine oligomers: a new class of Trojan carriers” (Bioorg Med Chem Lett, 2003).

Assays:
Type in all cases: functional, cell-based
Settings in all cases: Homo sapiens
DU-145 [1] = assay: Cellular uptake of compound into DU145 tumor cells by laser scanning cytometry at a concentration of 0.1 uM
DU-145 [2] = assay: Cellular uptake of compound into DU145 tumor cells by laser scanning cytometry at a concentration of 10 uM
HCT-15 [3] = assay: Cellular uptake of compound into HCT15 tumor cells by laser scanning cytometry at a concentration of 10 uM
HCT-15 [4] = assay: Cellular uptake of compound into HCT15 tumor cells by laser scanning cytometry at a concentration of 0.1 uM
HCT-15 [5] = assay: Cellular uptake of compound into HCT15 tumor cells by laser scanning cytometry at a concentration of 1 uM
DU-145 [6] = assay: Cellular uptake of compound into DU145 tumor cells by laser scanning cytometry at a concentration of 1 uM

| SMILES | Uptake (DU-145 [1]) [%] | Uptake (DU-145 [2]) [%] | Uptake (HCT-15 [3]) [%] | Uptake (HCT-15 [4]) [%] | Uptake (HCT-15 [5]) [%] | Uptake (DU-145 [6]) [%] |
| --- | --- | --- | --- | --- | --- | --- |
| NCCCCC(CC(N)=O)NC(=O)CC(CCCCN)NC(=O)CC(CCCCN)NC(=O)CC(CCCCN)NC(=O)CC(CCCCN)NC(=O)CC(CCCCN)NC(=O)CC(CCCCN)NC(=O)CC(CCCCN)NC(=O)COCCOCCNC(=O)c1ccccc1C1c2ccc(O)cc2Oc2cc(O)ccc21 (stereo not given) | 98.5 | 89.5 | 99.9 | 99.5 | 99.9 | 98.9 |
| NCCCCC(CC(N)=O)NC(=O)CC(CCCCN)NC(=O)CC(CCCCN)NC(=O)CC(CCCCN)NC(=O)CC(CCCCN)NC(=O)COCCOCCNC(=O)c1ccccc1C1c2ccc(O)cc2Oc2cc(O)ccc21 (stereo not given) | 71.9 | 97.8 | 99.8 | 99.8 | 99.6 | 76.5 |
| NCCCCC(CC(N)=O)NC(=O)CC(CCCCN)NC(=O)CC(CCCCN)NC(=O)CC(CCCCN)NC(=O)CC(CCCCN)NC(=O)CC(CCCCN)NC(=O)COCCOCCNC(=O)c1ccccc1C1c2ccc(O)cc2Oc2cc(O)ccc21 (stereo not given) | 40.4 | 94.9 | 99.6 | 99.9 | 99.7 | 69.5 |
| NCCCCC(CC(N)=O)NC(=O)CC(CCCCN)NC(=O)CC(CCCCN)NC(=O)CC(CCCCN)NC(=O)CC(CCCCN)NC(=O)CC(CCCCN)NC(=O)CC(CCCCN)NC(=O)COCCOCCNC(=O)c1ccccc1C1c2ccc(O)cc2Oc2cc(O)ccc21 (stereo not given) | 92.5 | 98.8 | 99.8 | 99.9 | 99.8 | 85.8 |
| O=C1OC2(c3ccc(O)cc3Oc3cc(O)ccc32)c2ccccc21 | 0.1 | 0.3 | 0.7 | 0.3 | 1.1 | 0.8 |
